Test system: Malassezia furfur
Test: Ex-vivo antifungal activity assay on inoculated human skin explants, product applied 24 hours after inoculation, CFU quantification
Assay type: cell-based
Settings: topical 2 mg/cm^2 applied 24 hours post inoculation, versus inoculum (C1) and untreated control explants (C2), FIG. 2
Description: Human organotypic skin cultures were obtained from abdominal skin removed during aesthetic surgery. These skin explants were altered by partial elimination of stratum corneum to facilitate the colonization and MF suspension was placed on the skin surface and incubated for 24 hours under conditions that are optimal for MF growth. 24 hours post initial MF inoculation, NSFC was topically applied on skin explants (2 mg/cm^2) and spread evenly. On control skin explants, inoculated in the same way, no product was applied (C2). A sham control group was treated with a neutral cream without known antifungal properties, petroleum jelly (P3). Growth of MF was monitored by quantifying MF Colony Forming Units (CFUs) in a sample removed from skin surface. The quantification of CFUs was carried out by recovering fungal microorganisms from skin explants and subsequent plating them following the serial dilution method to determine the number of CFUs.
The antifungal activity was evaluated for Ketoconazole 2% (P1), the composition of example 1 (P2), and petroleum jelly (Vaseline) (P3) with respect to the inoculum concentration (C1) and control skin explants (C2).

## CC(=O)N1CCN(c2ccc(OCC3COC(Cn4ccnc4)(c4ccc(Cl)cc4Cl)O3)cc2)CC1 (stereo not shown) [Ketoconazol 2%, ketoconazole]
  growth of M. furfur on the skin explants (CFUs): reduced the growth of the fungus
